Holding throughout (type): binding, rabbit
The subject of assay [1] is Antiserum RY778 (anti-phthalic acid ester antibody). The assay can be described thus: ELISA for diethyl phthalate and cross-reactivity test. The following applies: for Cross-reactivity: relative to diethyl phthalate (calculated as 100%) at B/B0=50, antiserum RY778; for IC50: competitive ELISA, antiserum RY778, biotinylated diethyl phthalate derivative as labeled antigen. As for the experimental part: An ELISA system of the present invention for diethyl phthalate was designed in the following manner.
Diethyl phthalate was diluted as follows. A solution (857 μg/mL) of 12 mg of diethyl phthalate in 15.7% DMSO was 10-fold diluted with PBS buffer to give a standard solution (85.7 μg/ml). Five-fold dilution of the standard solution was repeated to give solutions of various concentrations (17.1 μg/ml, 3.4 μg/ml, 0.69 μg/ml, 0.137 μg/ml, 0.027 μg/ml and 0.005 μg/ml). These solutions were used as diluted standard antigen solutions.
Biotin-Arg-Lys-aminocapronyl-4-amino-diethyl phthalate synthesized in Example 1 (4) was diluted to 2 ng/ml with PBS buffer and used as a labeled antigen solution.
Antiserum RY778 (anti-phthalic acid ester antibody) synthesized in Example 4 was diluted 10,000-fold with PBS buffer (containing 0.1% BSA and 0.1% Tween 20) and used as an antibody solution.
Goat anti-rabbit IgG (Jackson Immuno Research) was diluted 200-fold with 0.1M phosphate buffer (pH8.0), and 100 μl of the diluted IgG was pipetted into each well of a 96-well microtiter plate (Maxi Sorp, Nunc). The plate was allowed to stand at 25° C. for 18 to 20 hours and then the supernatant was removed. Subsequently, 340 μl of Block Ace (Dainippon Pharmaceutical Co., Ltd.) was pipetted into each well and the plate was allowed to stand at 25° C. for 18 to 20 hours whereby blocking was completed.
After the plate was washed with a wash solution (0.15M NaCl containing 0.1% Tween 20) 5 times, 50 μl of a diluted standard antigen solution or sample, 50 μl of the labeled antigen solution and 100 μl of the antibody solution were added to each well. The culture was incubated at 4° C. for 18 to 20 hours. The plate was washed 3 times with 0.3 ml of the wash solution, and then 0.1 ml of a streptavidin-horseradish peroxidase conjugate (×2500) was added. After incubation at room temperature for 1.5 hours, the plate was washed with 0.3 ml of the wash solution 4 times and then a tetramethyl benzidine-containing colorant (0.1 ml, product of Sigma) was added. After 30 minutes of coloring, 2N sulfuric acid was added to stop the reaction. Absorbance at 450 nm was measured.
A standard curve for diethyl phthalate was obtained from the results of the diluted standard antigen solutions (FIG. 1). In FIG. 1, the ordinate denotes absorbance (at 450 nm) and the abscissa denotes standard antigen concentration (ng/ml).
The cross-reactivity of the antibody of the invention with diethyl phthalate and structurally similar compounds was tested using the ELISA system described in Example 5.
Cross-reactivity (%) is defined as the molar concentration of each test antigen, relative to the concentration of diethyl phthalate (calculated as 100%), at B/B0=50.

The next assay has as its system antiserum RY849. As to the kind of experiment: ELISA for di-n-butyl phthalate and cross-reactivity test. Conditions: ELISA system for di-n-butyl phthalate. As for the experimental part: An ELISA system of the invention for di-n-butyl phthalate was designed in a manner similar to that of Example 5, using di-n-butyl phthalate (product of Wako Pure Chemical Industries, Inc.) as a standard antigen, using biotin-Arg-Lys-aminocapronyl-4-amino-di-n-butyl phthalate of Example 2 (2-4) as a labeled antigen and using antiserum RY849 (10,000-fold diluted) as an antiserum. The antiserum RY849 was prepared as in Example 4, but the aminocapronyl-4-amino-di-n-butyl phthalate of Example 2 (2-3) was used in place of aminocapronyl-4-amino-diethyl phthalate of Example 4.
A standard curve for di-n-butyl phthalate was obtained (FIG. 3).
The cross-reactivity of the antibody of the invention with di-n-butyl phthalate and structurally similar substances was determined using the ELISA system described in Example 10.

Another assay has as its system antiserum RY850. As to the kind of experiment: ELISA for benzyl n-butyl phthalate and cross-reactivity test. Conditions: ELISA system for benzyl n-butyl phthalate. As for the experimental part: An ELISA system of the invention for benzyl n-butyl phthalate was designed in a manner similar to that of Example 5, using benzyl n-butyl phthalate (product of Kanto Chemical Co., Inc.) as a standard antigen, using biotin-Arg-Lys-aminocapronyl-4-(or 5-)amino-benzyl n-butyl phthalate of Example 2 (2-6) as a labeled antigen and using antiserum RY850 (10,000-fold diluted) as an antiserum. The antiserum RY850 was prepared as in Example 4, but the aminocapronyl-4-(or 5-)amino-benzyl n-butyl phthalate of Example 2 (2-5) was used in place of aminocapronyl-4-amino-diethyl phthalate.
A standard curve for benzyl n-butyl phthalate was obtained (FIG. 2). In FIG. 2, the ordinate denotes absorbance (at 492 nm) and the abscissa denotes standard antigen concentration (ng/ml).
The cross-reactivity of the antibody of the invention with benzyl n-butyl phthalate and structurally similar compounds was determined using the ELISA system described in Example 8.
(An ELISA detects its analyte on a solid surface through an enzyme-linked reagent.)

Converted amounts (≈) assume the structure as drawn. Structures can show the parent of a compound that is named as a salt. Where only a bound is given, the exact number is not on record here.

A word on the IC50: it is the concentration that gives 50% inhibition. A lower IC50 goes with inhibition by little substance.

For `O=C(O)c1ccccc1` [Benzoic acid], the Cross-reactivity in assay [1] is on record as <0.001%; in assay [1] (listed as benzoic acid) it was “less than 0.001%”.
On to `COC(=O)c1ccccc1C(=O)OC` [Dimethyl phthalate], for which the values for the Cross-reactivity (with antiserum RY849; in assay [1]; in assay [1] (listed as dimethyl phthalate)) were 1.2%, 0.556% and “about 0.56%”, respectively. Also, in assay [1], the IC50 stood at 0.098178 µg/mL (≈ 0.506 µM).
For the molecule `CCOC(C)=O` [Ethyl acetate], in assay [1], the concentration for half-maximal inhibition (IC50) came out at 4.480033 µg/mL and the Cross-reactivity is on record as 0.012%.
In the case of `C/C(=C(/C)c1ccc(O)cc1)c1ccc(O)cc1` [Dimethyl stilbestrol], the Cross-reactivity in assay [1] is on record as <0.001%; in assay [1] (listed as dimethyl stilbestrol) it was “does not show substantial cross-reactivity”.
In the assay with antiserum RY849, `CCCCOC(=O)c1ccccc1C(=O)OCc1ccccc1` [benzyl n-butyl phthalate] displayed a Cross-reactivity of 100%.
As for `O=C(O)c1ccccc1C(=O)O` [Phthalic acid], the Cross-reactivity in assay [1] was <0.001%.
In turn, `CC/C(=C(/CC)c1ccc(O)cc1)c1ccc(O)cc1` [diethyl stilbestrol] showed a Cross-reactivity in the assay on antiserum RY849 of 1.5%.
With nonylphenol, the Cross-reactivity in the assay with antiserum RY849 is listed as 3.4%; in the assay on antiserum RY850, 2.3%.
Take `CCOC=O` [Ethyl formate]: in assay [1], the half-inhibitory concentration (IC50) was 3.001226 µg/mL and the Cross-reactivity was 0.018%.
Consider `CCOC(=O)c1ccccc1` [Ethyl benzoate], for which, in assay [1], the IC50 was determined as 4.391316 µg/mL (≈ 29.2 µM) and the Cross-reactivity is 0.012%.
With `CCCCOC(=O)c1ccccc1C(=O)OCCCC` [Dibutyl phthalate], the Cross-reactivity was 38.9% with antiserum RY850, 0.014% in assay [1] and “about 0.01%” in assay [1] (listed as dibutyl phthalate). Besides, in assay [1], the IC50 amounted to 3.893432 µg/mL (≈ 14 µM).
With `CCOC(=O)c1ccccc1C(=O)OCC` [Diethyl phthalate], the Cross-reactivity is 4% in the assay on antiserum RY849, 100% in assay [1] and “high reactivity” in assay [1] (listed as diethyl phthalate). The molecule further had a half-inhibitory concentration (IC50) in assay [1] of 0.000546 µg/mL (≈ 0.00246 µM).
Regarding `CCCCC(CC)COC(=O)c1ccccc1C(=O)OCC(CC)CCCC` (stereo not shown) [Di(2-ethylhexyl)phtalate], the Cross-reactivity in assay [1] is listed as <0.001%.
